Reference: ChEMBL document CHEMBL1201862, “PubChem BioAssay data set” (2004)
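Growth conditions: 96-well plates. Treatment: test compound, 48 hours, 5 concentrations. Analysis: linear interpolation between bracketing concentrations; unreached endpoints set to highest concentration. The concentration for 50% growth inhibition is given as GI50.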 Activity calls are given as the source filed them. No stated cut-off is given here; in the data, active = GI50 up to about 1.1 µM and inactive = higher.

Columns and labels:
Experiment in all cases: inhibition of tumour cell growth, NCI panel, 48 h
[1] = tested on: 786-0
[2] = tested on: A498
[3] = tested on: A549
[4] = tested on: ACHN
[5] = tested on: BT-549
[6] = tested on: CAKI-1
[7] = tested on: CCRF-CEM
[8] = tested on: COLO 205
[9] = tested on: DU-145
[10] = tested on: EKVX
[11] = tested on: HCC 2998
[12] = tested on: HCT-116
[13] = tested on: HCT-15
[14] = tested on: HL-60
[15] = tested on: HOP-92
[16] = tested on: HT-29
[17] = tested on: Hs-578T
[18] = tested on: IGROV-1
[19] = tested on: K562
[20] = tested on: KM12
[21] = tested on: LOX IMVI
[22] = tested on: M14
[23] = tested on: MCF7
[24] = tested on: MDA-MB-231
[25] = tested on: MDA-MB-435
[26] = tested on: MDA-N
[27] = tested on: MOLT-4
[28] = tested on: Malme-3M
[29] = tested on: NCI-H226
[30] = tested on: NCI-H23
[31] = tested on: NCI-H460
[32] = tested on: NCI-H522
[33] = tested on: NCI/ADR-RES
[34] = tested on: OVCAR-3
[35] = tested on: OVCAR-4
[36] = tested on: OVCAR-5
[37] = tested on: OVCAR-8
[38] = tested on: PC-3
[39] = tested on: RPMI-8226
[40] = tested on: RXF 393
[41] = tested on: SF-268
[42] = tested on: SF-295
[43] = tested on: SF-539
[44] = tested on: SK-MEL-28
[45] = tested on: SK-MEL-2
[46] = tested on: SK-MEL-5
[47] = tested on: SK-OV-3
[48] = tested on: SN12C
[49] = tested on: SNB-19
[50] = tested on: SNB-75
[51] = tested on: SR
[52] = tested on: SW-620
[53] = tested on: T47D
[54] = tested on: U-251
[55] = tested on: UACC-257
[56] = tested on: UACC-62
[57] = tested on: UO-31

Measured: GI50

Cc1nc(-c2cccnc2)sc1C(=O)CC(=O)C(=O)Nc1cccc(NC(=O)C(=O)CC(=O)c2sc(-c3cccnc3)nc2C)n1
> 100 µM: [13]
inactive: [1] > 100 µM | [2] > 100 µM | [3] > 100 µM | [4] > 100 µM | [5] > 100 µM | [6] > 100 µM | [7] > 100 µM | [8] > 100 µM | [9] > 100 µM | [10] > 100 µM | [11] > 100 µM | [12] > 100 µM | [14] > 100 µM | [15] > 100 µM | [16] > 100 µM | [17] > 100 µM | [18] > 100 µM | [19] > 100 µM | [20] > 100 µM | [21] > 100 µM | [22] > 100 µM | [23] > 100 µM | [24] > 100 µM | [25] > 100 µM | [26] > 100 µM | [27] > 100 µM | [28] > 100 µM | [29] > 100 µM | [30] > 100 µM | [31] > 100 µM | [32] > 100 µM | [33] > 100 µM | [34] > 100 µM | [35] > 100 µM | [36] > 100 µM | [37] > 100 µM | [38] > 100 µM | [39] > 100 µM | [40] > 100 µM | [41] > 100 µM | [42] > 100 µM | [43] > 100 µM | [44] > 100 µM | [45] > 100 µM | [46] > 100 µM | [47] > 100 µM | [48] > 100 µM | [49] > 100 µM | [50] 68.5 µM | [51] > 100 µM | [52] > 100 µM | [53] > 100 µM | [54] > 100 µM | [55] > 100 µM | [56] > 100 µM | [57] > 100 µM
